According to ChEMBL document CHEMBL1926604, “Design and synthesis of pyridin-2-ylmethylaminopiperidin-1-ylbutyl amide CCR5 antagonists that are potent inhibitors of M-tropic (R5) HIV-1 replication” (Bioorg Med Chem Lett, 2011):
The source made the active and inactive calls. No cut-off for these calls is given here.

Tests used:
[1] = tested on: Human immunodeficiency virus 1; assay: Antiviral activity against R5 tropic Human immunodeficiency virus 1 BAL infected in human PBMC cells assessed as reduction in viral replication by p24 detection based ELISA; format: functional, organism-based
[2] = Cytotoxic activity against human PBMC assessed as reduction in cell viability; format: cell-based
[3] = (§1) Plasma protein binding in human plasma at 1 uM after 5 hrs by LC-MS/MS analysis; format: ADME, cell-free; conditions: read-out: PPB (converted)
[4] = Cmax in rat; format: ADME, organism-based; conditions: in vivo
[5] = Cmax in dog; format: ADME, organism-based, Canis lupus familiaris; conditions: in vivo
[6] = AUC (0 to infinity) in rat; format: ADME, organism-based; parameters: time infinity; concentration or dose not given beside the values; conditions: plasma
[7] = AUC (0 to infinity) in dog; format: ADME, organism-based, Canis lupus familiaris; parameters: time infinity; concentration or dose not given beside the values; conditions: plasma
[8] = Clearance in rat at 10 umol/kg, iv; format: ADME, organism-based; conditions: in vivo
[9] = Clearance in dog at 5 umol/kg, iv; format: ADME, organism-based, Canis lupus familiaris; conditions: in vivo
[10] = Volume of distribution at steady state in rat at 10 umol/kg, iv; format: ADME, organism-based; conditions: in vivo, 10 umol/kg, read-out: Vdss
[11] = Volume of distribution at steady state in dog at 5 umol/kg, iv; format: ADME, organism-based, Canis lupus familiaris; conditions: in vivo, read-out: Vdss
[12] = Half life in rat at 10 umol/kg, iv; format: ADME, organism-based; conditions: in vivo, 10 umol/kg
[13] = Half life in dog at 5 umol/kg, iv; format: ADME, organism-based, Canis lupus familiaris; conditions: in vivo
[14] = Oral bioavailability in rat; format: ADME, organism-based; conditions: in vivo
[15] = Oral bioavailability in dog; format: ADME, organism-based, Canis lupus familiaris; conditions: in vivo
[16] = biological target: T1, Muscarinic acetylcholine receptor M2 (Homo sapiens) (UniProt P08172); assay: Inhibition of muscarinic M2 receptor
T1 sequence (whole entry): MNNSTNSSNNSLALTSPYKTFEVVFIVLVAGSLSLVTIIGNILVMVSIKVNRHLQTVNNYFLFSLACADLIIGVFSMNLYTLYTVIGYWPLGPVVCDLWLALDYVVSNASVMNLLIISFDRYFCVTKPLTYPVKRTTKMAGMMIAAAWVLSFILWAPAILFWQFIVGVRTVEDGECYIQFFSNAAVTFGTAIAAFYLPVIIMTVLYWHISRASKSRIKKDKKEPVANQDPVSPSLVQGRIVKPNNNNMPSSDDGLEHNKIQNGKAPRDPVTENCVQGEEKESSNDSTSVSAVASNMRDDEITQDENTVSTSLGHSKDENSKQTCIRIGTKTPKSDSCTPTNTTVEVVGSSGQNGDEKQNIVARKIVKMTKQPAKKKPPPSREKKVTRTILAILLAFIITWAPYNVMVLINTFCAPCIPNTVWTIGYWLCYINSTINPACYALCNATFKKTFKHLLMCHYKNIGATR

Cytochrome P450 3A4 = Cytochrome P450 3A4 (Homo sapiens, UniProt P08684); assay: Inhibition of CYP3A4; format: ADME
Cytochrome P450 1A2 = biological target: T2, Cytochrome P450 1A2 (Homo sapiens, UniProt P05177); assay: Inhibition of CYP1A2; format: ADME
T2 sequence (P05177 whole entry): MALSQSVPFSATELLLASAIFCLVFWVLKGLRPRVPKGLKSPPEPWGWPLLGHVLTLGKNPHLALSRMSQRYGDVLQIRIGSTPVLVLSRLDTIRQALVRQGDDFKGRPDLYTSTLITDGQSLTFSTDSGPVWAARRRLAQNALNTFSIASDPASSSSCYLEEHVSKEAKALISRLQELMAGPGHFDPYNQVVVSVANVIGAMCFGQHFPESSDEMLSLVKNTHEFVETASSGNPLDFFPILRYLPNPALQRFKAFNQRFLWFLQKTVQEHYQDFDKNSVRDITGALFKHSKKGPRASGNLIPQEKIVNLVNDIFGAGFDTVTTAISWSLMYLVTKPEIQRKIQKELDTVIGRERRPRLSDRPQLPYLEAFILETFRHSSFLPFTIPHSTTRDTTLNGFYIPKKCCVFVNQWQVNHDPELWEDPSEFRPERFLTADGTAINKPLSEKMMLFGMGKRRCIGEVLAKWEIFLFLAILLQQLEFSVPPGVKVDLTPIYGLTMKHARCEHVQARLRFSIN

Cytochrome P450 2C9 = Cytochrome P450 2C9 (Homo sapiens, UniProt P11712); assay: Inhibition of CYP2C9; format: ADME
Cytochrome P450 2C19 = Cytochrome P450 2C19 (Homo sapiens, UniProt P33261); assay: Inhibition of CYP2C19; format: ADME
Cytochrome P450 2D6 = Cytochrome P450 2D6 (Homo sapiens, UniProt P10635); assay: Inhibition of CYP2D6; format: ADME
[17] = biological target: Voltage-gated inwardly rectifying potassium channel KCNH2 (Homo sapiens, UniProt Q12809); assay: Inhibition of human ERG
[18] = biological target: T3, C-C chemokine receptor type 1 (Homo sapiens) (UniProt P32246); assay: Inhibition of CCR1 by Ca(2+) flux assay
T3 sequence (whole entry): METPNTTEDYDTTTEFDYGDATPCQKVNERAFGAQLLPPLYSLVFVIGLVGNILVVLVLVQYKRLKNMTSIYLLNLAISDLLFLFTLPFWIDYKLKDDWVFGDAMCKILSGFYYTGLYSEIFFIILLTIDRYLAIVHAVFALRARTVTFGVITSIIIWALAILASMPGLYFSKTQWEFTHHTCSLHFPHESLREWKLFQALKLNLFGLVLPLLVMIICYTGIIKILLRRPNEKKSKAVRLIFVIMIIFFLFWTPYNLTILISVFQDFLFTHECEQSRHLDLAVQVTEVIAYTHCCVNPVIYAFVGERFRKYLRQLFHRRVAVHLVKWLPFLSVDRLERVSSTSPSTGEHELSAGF

[19] = biological target: C-C chemokine receptor type 2 (Homo sapiens) (UniProt P41597); assay: Inhibition of CCR2B by Ca(2+) flux assay
[20] = biological target: T4, C-C chemokine receptor type 4 (Homo sapiens) (UniProt P51679); assay: Inhibition of CCR4 by Ca(2+) flux assay
T4 sequence (whole entry): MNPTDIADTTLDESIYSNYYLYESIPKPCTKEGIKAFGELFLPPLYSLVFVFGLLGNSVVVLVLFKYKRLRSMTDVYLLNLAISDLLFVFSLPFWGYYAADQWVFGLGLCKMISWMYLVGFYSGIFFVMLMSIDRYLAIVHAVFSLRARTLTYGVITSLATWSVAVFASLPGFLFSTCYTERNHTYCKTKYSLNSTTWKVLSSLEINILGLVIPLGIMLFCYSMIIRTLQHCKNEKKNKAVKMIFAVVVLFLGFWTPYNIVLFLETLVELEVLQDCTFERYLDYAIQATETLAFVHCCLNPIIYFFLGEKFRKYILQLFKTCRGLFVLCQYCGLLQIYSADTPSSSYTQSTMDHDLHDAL

[21] = biological target: T5, C-X-C chemokine receptor type 1 (Homo sapiens) (UniProt P25024); assay: Inhibition of CXCR1 by Ca(2+) flux assay
T5 sequence (whole entry): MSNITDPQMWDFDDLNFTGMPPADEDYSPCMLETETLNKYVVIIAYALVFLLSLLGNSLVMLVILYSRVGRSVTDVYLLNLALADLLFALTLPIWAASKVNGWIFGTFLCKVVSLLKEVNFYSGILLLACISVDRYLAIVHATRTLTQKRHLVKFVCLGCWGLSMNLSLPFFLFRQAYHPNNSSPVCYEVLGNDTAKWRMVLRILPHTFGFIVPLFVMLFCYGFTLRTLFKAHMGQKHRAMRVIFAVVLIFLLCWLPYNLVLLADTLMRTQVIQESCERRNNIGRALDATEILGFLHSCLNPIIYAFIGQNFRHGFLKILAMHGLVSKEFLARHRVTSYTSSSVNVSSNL

[22] = biological target: T6, C-X-C chemokine receptor type 2 (Homo sapiens) (UniProt P25025); assay: Inhibition of CXCR2 by Ca(2+) flux assay
T6 sequence (whole entry): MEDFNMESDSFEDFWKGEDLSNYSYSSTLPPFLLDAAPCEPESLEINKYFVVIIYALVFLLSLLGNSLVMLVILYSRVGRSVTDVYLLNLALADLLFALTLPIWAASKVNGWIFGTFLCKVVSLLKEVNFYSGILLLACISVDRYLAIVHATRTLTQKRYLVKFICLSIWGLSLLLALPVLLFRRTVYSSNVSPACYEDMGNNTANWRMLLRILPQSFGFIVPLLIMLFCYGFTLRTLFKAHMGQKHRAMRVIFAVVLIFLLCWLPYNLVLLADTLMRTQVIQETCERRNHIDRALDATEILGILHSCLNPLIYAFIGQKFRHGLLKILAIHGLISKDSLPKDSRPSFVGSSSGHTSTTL

[23] = biological target: C-X-C chemokine receptor type 4 (Homo sapiens) (UniProt P61073); assay: Inhibition of CXCR4 by Ca(2+) flux assay
Plasma = assay: as §1; format: ADME, cell-free; conditions: 5 h, 1 µM

Sequence of C-C chemokine receptor type 2 (Homo sapiens) (P41597 whole entry, looked up): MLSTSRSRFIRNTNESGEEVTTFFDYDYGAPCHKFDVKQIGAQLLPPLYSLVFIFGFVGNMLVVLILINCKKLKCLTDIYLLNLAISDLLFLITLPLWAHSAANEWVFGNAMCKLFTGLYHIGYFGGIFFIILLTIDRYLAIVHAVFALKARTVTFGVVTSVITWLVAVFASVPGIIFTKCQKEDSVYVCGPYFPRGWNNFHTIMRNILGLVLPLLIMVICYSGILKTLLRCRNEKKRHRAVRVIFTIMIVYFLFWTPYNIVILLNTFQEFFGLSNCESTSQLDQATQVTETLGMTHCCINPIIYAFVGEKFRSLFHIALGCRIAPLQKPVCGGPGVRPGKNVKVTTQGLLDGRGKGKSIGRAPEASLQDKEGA
Sequence of Voltage-gated inwardly rectifying potassium channel KCNH2 (Q12809 whole entry): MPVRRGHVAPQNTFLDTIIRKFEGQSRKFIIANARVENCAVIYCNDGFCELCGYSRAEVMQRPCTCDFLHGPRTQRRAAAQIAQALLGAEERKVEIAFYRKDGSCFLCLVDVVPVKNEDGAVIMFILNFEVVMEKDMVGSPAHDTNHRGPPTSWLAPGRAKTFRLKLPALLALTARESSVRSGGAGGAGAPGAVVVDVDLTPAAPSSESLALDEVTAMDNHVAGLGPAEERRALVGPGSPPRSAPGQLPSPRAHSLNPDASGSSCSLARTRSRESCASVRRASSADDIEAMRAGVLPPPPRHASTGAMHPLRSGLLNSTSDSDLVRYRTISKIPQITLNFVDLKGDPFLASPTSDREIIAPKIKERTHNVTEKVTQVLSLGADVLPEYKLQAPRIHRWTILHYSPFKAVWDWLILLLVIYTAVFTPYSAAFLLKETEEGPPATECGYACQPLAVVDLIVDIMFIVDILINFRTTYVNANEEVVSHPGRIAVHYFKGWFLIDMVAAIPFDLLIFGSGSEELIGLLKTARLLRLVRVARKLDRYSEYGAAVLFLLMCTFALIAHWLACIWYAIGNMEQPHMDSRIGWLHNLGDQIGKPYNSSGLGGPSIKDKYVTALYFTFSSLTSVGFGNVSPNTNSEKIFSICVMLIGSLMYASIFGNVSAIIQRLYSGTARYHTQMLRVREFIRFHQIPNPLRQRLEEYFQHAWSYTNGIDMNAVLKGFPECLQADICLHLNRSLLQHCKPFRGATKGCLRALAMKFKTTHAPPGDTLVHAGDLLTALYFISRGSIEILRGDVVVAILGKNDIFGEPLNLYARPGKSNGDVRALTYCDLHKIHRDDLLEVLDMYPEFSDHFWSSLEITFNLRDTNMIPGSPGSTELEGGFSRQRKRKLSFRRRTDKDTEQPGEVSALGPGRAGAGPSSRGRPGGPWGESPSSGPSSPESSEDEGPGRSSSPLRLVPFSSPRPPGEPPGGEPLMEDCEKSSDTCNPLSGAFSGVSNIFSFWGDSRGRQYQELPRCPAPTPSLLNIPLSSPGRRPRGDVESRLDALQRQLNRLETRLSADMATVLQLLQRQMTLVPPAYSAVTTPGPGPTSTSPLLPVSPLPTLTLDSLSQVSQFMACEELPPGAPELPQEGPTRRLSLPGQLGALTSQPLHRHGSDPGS
Sequence of Cytochrome P450 2C19 (P33261 whole entry): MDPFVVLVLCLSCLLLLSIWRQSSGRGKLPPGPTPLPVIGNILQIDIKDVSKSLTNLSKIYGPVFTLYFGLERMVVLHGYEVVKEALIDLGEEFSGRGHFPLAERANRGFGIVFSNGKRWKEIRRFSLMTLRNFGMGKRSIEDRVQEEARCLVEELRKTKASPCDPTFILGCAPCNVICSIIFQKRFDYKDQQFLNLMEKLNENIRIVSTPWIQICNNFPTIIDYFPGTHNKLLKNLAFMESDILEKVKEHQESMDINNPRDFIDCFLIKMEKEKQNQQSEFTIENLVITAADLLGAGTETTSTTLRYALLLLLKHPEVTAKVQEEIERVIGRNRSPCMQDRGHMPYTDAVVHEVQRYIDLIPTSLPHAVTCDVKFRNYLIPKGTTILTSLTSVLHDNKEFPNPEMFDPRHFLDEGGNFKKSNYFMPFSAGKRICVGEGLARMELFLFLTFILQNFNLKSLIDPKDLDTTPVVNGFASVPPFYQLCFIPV
Sequence of Cytochrome P450 2C9 (P11712 whole entry): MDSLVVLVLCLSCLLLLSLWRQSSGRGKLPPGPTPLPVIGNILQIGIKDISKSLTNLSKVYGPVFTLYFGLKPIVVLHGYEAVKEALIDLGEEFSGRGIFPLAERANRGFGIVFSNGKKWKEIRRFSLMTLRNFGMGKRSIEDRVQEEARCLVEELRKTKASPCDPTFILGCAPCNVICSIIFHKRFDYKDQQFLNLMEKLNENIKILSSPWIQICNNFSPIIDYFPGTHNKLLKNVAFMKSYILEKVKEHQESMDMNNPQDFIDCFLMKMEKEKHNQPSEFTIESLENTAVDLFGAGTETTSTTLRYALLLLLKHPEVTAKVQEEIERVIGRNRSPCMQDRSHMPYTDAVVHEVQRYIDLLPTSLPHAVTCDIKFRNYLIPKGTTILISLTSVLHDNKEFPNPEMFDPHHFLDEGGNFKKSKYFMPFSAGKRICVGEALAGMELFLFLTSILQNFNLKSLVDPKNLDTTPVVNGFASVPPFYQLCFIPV
Sequence of Cytochrome P450 3A4 (P08684 whole entry): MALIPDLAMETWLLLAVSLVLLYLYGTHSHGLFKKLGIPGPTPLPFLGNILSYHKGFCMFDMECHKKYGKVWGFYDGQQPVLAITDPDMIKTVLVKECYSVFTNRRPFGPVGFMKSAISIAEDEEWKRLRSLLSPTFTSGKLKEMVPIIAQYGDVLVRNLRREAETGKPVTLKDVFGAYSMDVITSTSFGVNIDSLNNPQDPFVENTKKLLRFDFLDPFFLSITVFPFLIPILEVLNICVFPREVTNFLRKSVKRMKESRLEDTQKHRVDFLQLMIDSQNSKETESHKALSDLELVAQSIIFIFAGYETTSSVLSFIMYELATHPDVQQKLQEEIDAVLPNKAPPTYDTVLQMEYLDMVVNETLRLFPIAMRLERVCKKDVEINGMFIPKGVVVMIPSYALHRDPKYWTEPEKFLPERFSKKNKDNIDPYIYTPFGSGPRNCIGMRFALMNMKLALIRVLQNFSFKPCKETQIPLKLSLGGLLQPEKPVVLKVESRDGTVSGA
Sequence of Cytochrome P450 2D6 (P10635 whole entry): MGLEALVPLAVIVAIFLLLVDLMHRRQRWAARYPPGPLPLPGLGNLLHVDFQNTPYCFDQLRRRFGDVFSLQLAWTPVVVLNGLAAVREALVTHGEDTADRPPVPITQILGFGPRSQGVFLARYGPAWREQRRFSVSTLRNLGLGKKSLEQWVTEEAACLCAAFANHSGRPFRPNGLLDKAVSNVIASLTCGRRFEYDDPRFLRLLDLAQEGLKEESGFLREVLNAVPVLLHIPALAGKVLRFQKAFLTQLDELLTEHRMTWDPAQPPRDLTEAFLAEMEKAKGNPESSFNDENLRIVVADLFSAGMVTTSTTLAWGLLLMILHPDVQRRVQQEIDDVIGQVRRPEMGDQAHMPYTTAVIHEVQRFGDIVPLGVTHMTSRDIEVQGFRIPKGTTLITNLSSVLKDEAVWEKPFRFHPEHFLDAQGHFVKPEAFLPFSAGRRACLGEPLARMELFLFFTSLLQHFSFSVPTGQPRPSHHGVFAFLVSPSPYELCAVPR
Sequence of C-X-C chemokine receptor type 4 (Homo sapiens) (P61073 whole entry): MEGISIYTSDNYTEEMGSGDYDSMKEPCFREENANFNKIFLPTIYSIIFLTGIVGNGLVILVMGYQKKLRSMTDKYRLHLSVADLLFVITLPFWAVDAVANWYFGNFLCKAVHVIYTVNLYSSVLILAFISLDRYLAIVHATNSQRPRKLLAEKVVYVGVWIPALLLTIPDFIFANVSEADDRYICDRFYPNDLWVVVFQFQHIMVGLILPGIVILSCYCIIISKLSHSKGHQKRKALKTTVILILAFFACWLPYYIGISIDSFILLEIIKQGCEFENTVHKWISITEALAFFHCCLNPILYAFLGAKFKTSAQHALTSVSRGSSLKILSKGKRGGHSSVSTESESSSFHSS

COc1ccc(N(Cc2cnccc2C)C2CCN([C@H](C)CCNC(=O)c3c(C)cc(Cl)nc3C)CC2)cc1
IC50 [1]: 2.2 nM
CC50 [2]: > 36.4 µM
fraction unbound at 5 h, 1 µM [3]: 0.08
Cmax [4]: 3.8 µM
Cmax [5]: 580 nM
AUC(0-inf) [6]: 22.7 µM·h
AUC(0-inf) [7]: 1.33 µM·h
clearance [8]: 46.7 mL/min/kg
clearance [9]: 30 mL/min/kg
Vd [10]: 40.5 L/kg
Vd [11]: 34.7 L/kg
half-life [12]: 600 min
half-life [13]: 810 min
bioavailability [14]: 67%
bioavailability [15]: 21%
inhibition [16]: inactive
INH (Cytochrome P450 3A4): > 10 µM
INH (Cytochrome P450 1A2): > 10 µM
INH (Cytochrome P450 2C9): > 10 µM
INH (Cytochrome P450 2C19): > 10 µM
INH (Cytochrome P450 2D6): > 10 µM
IC50 [17]: 250 nM
inhibition [18]: inactive
inhibition [19]: inactive
inhibition [20]: inactive
inhibition [21]: inactive
inhibition [22]: inactive
inhibition [23]: inactive

COc1ccc(N(Cc2cnccc2C)C2CCN([C@H](C)CCNC(=O)c3c(C)ncnc3C)CC2)cc1
IC50 [1]: 1830 nM
CC50 [2]: > 38.3 µM
PPB (Plasma): 75%
